Test system: HCT116 DICER^ex5 cells
Experiment: Gene expression profiling (Agilent 44K microarray) after transfection of miR-192/miR-215 duplex mimetics
Type: cell-based, human
Conditions: 10 nM, vs mock-transfected
Method: Synthetic duplex mimetics of miR-192 and miR-215 (sequences shown in TABLE 1) or a control target Luciferase siRNA (Luc), shown in TABLE 1, were transfected (10 nM final concentration) into HCT116 DICER^ex5, a human colorectal cancer cell line with hypomorphic DICER function (Cummins, J. M., et al., PNAS 103:3687-3692 (2006)). The transfections were carried out using Lipofectamine RNAiMax (Invitrogen) per the manufacturer's instructions. At 10 and 24 hours post-transfection, total RNA was extracted and gene expression profiling was carried out with the Agilent 44K microarray in comparison to RNA isolated from mock-transfected HCT116DICER^ex5 cells. Microarray analysis was carried out as described in Linsley, P. S., et al., Mol Cell Biol 27:2240-2252 (2007). Gene expression data analysis was done either with the Rosetta Resolver gene expression analysis software (Version 7.1 Rosetta Biosoftware).

miR-215: Synthetic duplex mimetic of miR-215, guide AUGACCUAUGAAUUGACAGAC (SEQ ID NO:4), passenger SEQ ID NO:10 (sense CUGUCAAUUCAUAGGUCUUAU; listed as RNA, chemistry not given here; listed as Homo sapiens)
BCL2 transcript fold change (10 hr): −1.09 fold change
BRCA1 transcript fold change (10 hr): −1.04 fold change
CDC7 transcript fold change (10 hr): −1.54 fold change
CDC14A transcript fold change (10 hr): −1.05 fold change
CDC73 transcript fold change (10 hr): −1.04 fold change
CRK transcript fold change (10 hr): −1.43 fold change
CTCF transcript fold change (10 hr): −1.53 fold change
CUL5 transcript fold change (10 hr): −1.25 fold change
DBF4B transcript fold change (10 hr): −1.07 fold change
DEK transcript fold change (10 hr): −1.19 fold change
DLG5 transcript fold change (10 hr): −1.89 fold change
DTL transcript fold change (10 hr): −1.19 fold change
EMP1 transcript fold change (10 hr): 1.11 fold change
ERCC3 transcript fold change (10 hr): −1.25 fold change
EXTL2 transcript fold change (10 hr): −1.32 fold change
FGF2 transcript fold change (10 hr): −1.67 fold change
HOXA10 transcript fold change (10 hr): −1.74 fold change
HRH1 transcript fold change (10 hr): −1.52 fold change
KIF14 transcript fold change (10 hr): 1.01 fold change
KIF23 transcript fold change (10 hr): 1.01 fold change
LMNB2 transcript fold change (10 hr): −1.55 fold change
MACF1 transcript fold change (10 hr): −1.17 fold change
MAD2L transcript fold change (10 hr): −1.31 fold change
MCM3 transcript fold change (10 hr): −1.56 fold change
MCM6 transcript fold change (10 hr): −1.04 fold change
MCM10 transcript fold change (10 hr): −1.97 fold change
MIS12 transcript fold change (10 hr): −1.28 fold change
MKI67 transcript fold change (10 hr): −1.04 fold change
MPHOSPH1 transcript fold change (10 hr): −1.46 fold change
MTSS1 transcript fold change (10 hr): −1.07 fold change
NBN transcript fold change (10 hr): −1.39 fold change
NCAPH transcript fold change (10 hr): −1.02 fold change
NEK1 transcript fold change (10 hr): −1.16 fold change
NFIB transcript fold change (10 hr): −1.38 fold change
NFYA transcript fold change (10 hr): −1.25 fold change
NIN transcript fold change (10 hr): −1.12 fold change
PAFAH1B1 transcript fold change (10 hr): −1.31 fold change
PAPD5 transcript fold change (10 hr): −1.31 fold change
PFTK1 transcript fold change (10 hr): 1.05 fold change
PIM1 transcript fold change (10 hr): −1.13 fold change
PLAU transcript fold change (10 hr): −1.77 fold change
PLS3 transcript fold change (10 hr): −1.56 fold change
POLQ transcript fold change (10 hr): −1.1 fold change
POLS transcript fold change (10 hr): −1.17 fold change
PPP1CA transcript fold change (10 hr): −1.76 fold change
PRPF38A transcript fold change (10 hr): −1.09 fold change
RACGAP1 transcript fold change (10 hr): −1.31 fold change
RAD1 transcript fold change (10 hr): −1.12 fold change
RAD21 transcript fold change (10 hr): −1.32 fold change
RAD51 transcript fold change (10 hr): 1.05 fold change
RAP1GAP transcript fold change (10 hr): −1.21 fold change
RB1 transcript fold change (10 hr): −1.25 fold change
SEPT10 transcript fold change (10 hr): −1.6 fold change
SERTAD2 transcript fold change (10 hr): −1.09 fold change
SH3BP4 transcript fold change (10 hr): −1.38 fold change
SMARCB1 transcript fold change (10 hr): −1.42 fold change
TDG transcript fold change (10 hr): −1.54 fold change
TDP1 transcript fold change (10 hr): −1.5 fold change
TOP1 transcript fold change (10 hr): −1.64 fold change
TUBGCP3 transcript fold change (10 hr): −1.41 fold change
USP1 transcript fold change (10 hr): −1.16 fold change
UVRAG transcript fold change (10 hr): −1.17 fold change
BCL2 transcript fold change (24 hr): −1.59 fold change
BRCA1 transcript fold change (24 hr): −1.43 fold change
CDC7 transcript fold change (24 hr): −2.04 fold change
CDC14A transcript fold change (24 hr): −1.2 fold change
CDC73 transcript fold change (24 hr): −1.1 fold change
CRK transcript fold change (24 hr): −1.52 fold change
CTCF transcript fold change (24 hr): −1.66 fold change
CUL5 transcript fold change (24 hr): −1.37 fold change
DBF4B transcript fold change (24 hr): −1.33 fold change
DEK transcript fold change (24 hr): −1.42 fold change
DLG5 transcript fold change (24 hr): −2.03 fold change
DTL transcript fold change (24 hr): −1.46 fold change
EMP1 transcript fold change (24 hr): 1.04 fold change
ERCC3 transcript fold change (24 hr): −1.36 fold change
EXTL2 transcript fold change (24 hr): −1.59 fold change
FGF2 transcript fold change (24 hr): −2.12 fold change
HOXA10 transcript fold change (24 hr): −2.57 fold change
HRH1 transcript fold change (24 hr): −1.63 fold change
KIF14 transcript fold change (24 hr): −1.53 fold change
KIF23 transcript fold change (24 hr): −1.36 fold change
LMNB2 transcript fold change (24 hr): −1.92 fold change
MACF1 transcript fold change (24 hr): −1.55 fold change
MAD2L transcript fold change (24 hr): −1.84 fold change
MCM3 transcript fold change (24 hr): −1.96 fold change
MCM6 transcript fold change (24 hr): −1.4 fold change
MCM10 transcript fold change (24 hr): −2.67 fold change
MIS12 transcript fold change (24 hr): −1.77 fold change
MKI67 transcript fold change (24 hr): −1.52 fold change
MPHOSPH1 transcript fold change (24 hr): −1.94 fold change
MTSS1 transcript fold change (24 hr): −1.29 fold change
NBN transcript fold change (24 hr): −1.41 fold change
NCAPH transcript fold change (24 hr): −1.32 fold change
NEK1 transcript fold change (24 hr): −1.35 fold change
NFIB transcript fold change (24 hr): −1.91 fold change
NFYA transcript fold change (24 hr): −1.18 fold change
NIN transcript fold change (24 hr): −1.42 fold change
PAFAH1B1 transcript fold change (24 hr): −1.6 fold change
PAPD5 transcript fold change (24 hr): −1.22 fold change
PFTK1 transcript fold change (24 hr): −1.28 fold change
PIM1 transcript fold change (24 hr): −1.65 fold change
PLAU transcript fold change (24 hr): −1.91 fold change
PLS3 transcript fold change (24 hr): −1.84 fold change
POLQ transcript fold change (24 hr): −1.23 fold change
POLS transcript fold change (24 hr): −1.38 fold change
PPP1CA transcript fold change (24 hr): −2.42 fold change
PRPF38A transcript fold change (24 hr): −1.17 fold change
RACGAP1 transcript fold change (24 hr): −1.84 fold change
RAD1 transcript fold change (24 hr): −1.38 fold change
RAD21 transcript fold change (24 hr): −1.52 fold change
RAD51 transcript fold change (24 hr): −1.35 fold change
RAP1GAP transcript fold change (24 hr): −1.35 fold change
RB1 transcript fold change (24 hr): −1.39 fold change
SEPT10 transcript fold change (24 hr): −1.95 fold change
SERTAD2 transcript fold change (24 hr): −1.1 fold change
SH3BP4 transcript fold change (24 hr): −1.67 fold change
SMARCB1 transcript fold change (24 hr): −1.42 fold change
TDG transcript fold change (24 hr): −1.55 fold change
TDP1 transcript fold change (24 hr): −1.8 fold change
TOP1 transcript fold change (24 hr): −1.76 fold change
TUBGCP3 transcript fold change (24 hr): −1.73 fold change
USP1 transcript fold change (24 hr): −1.38 fold change
UVRAG transcript fold change (24 hr): −1.43 fold change

Reference: patent US20110118337A1, “Method of Using Compositions Comprising MIR-192 and/or MIR-215 for the Treatment of Cancer” (Merck Sharp & Dohme Corp., priority 2008, published 2011)
